Read-outs that look alike come from different tables or passages of the source.
Columns and labels:
Format in all cases: cell-based
IL-8 = assay: Inhibition of IL-8 production by stimulated human peripheral blood leukocytes in vitro; settings: Homo sapiens, Leukocyte, PBL, read-out: Percentage of inhibition of IL-8 production; for inhibition at 10 µM: compound 10 μM; for inhibition at 50 µM: compound 50 μM
Experimental: (§1) Test substances used in in vitro experiments were dissolved in dimethyl sulfoxide (DMSO) (Kemika, Croatia) at concentrations of 50 mM and 10 mM, and were further diluted to final concentrations of 50 μM and 10 μM in 1 mL Dulbecco's modified Eagle medium (DMEM) supplemented with 1% heat inactivated fetal bovine serum (FBS), 1% L-glutamine, 50 U/ml penicillin, 50 μg/ml streptomycin and 2.5 μg/mL Fungizone (amphotericin B). Media and all media supplements were purchased from Gibco, Australia, except the FBS was purchased from Sigma, USA.
(§2) Peripheral blood leukocytes (PBL) were obtained from venous blood of healthy volunteers by sedimentation on 2% dextran T-500 (Amersham Biosciences, USA) and subsequent centrifugations of leukocyte rich plasma.
(§3) Peripheral blood leukocytes (PBL), isolated as described above, were seeded in a 48-well plate at a concentration of 3 to 5×10^6 cell per well in culture medium consisting of RPMI 1640 medium (Institute of Immunology, Croatia) supplemented with 10% heat-inactivated fetal calf serum (FCS, Biowhittaker, USA), 100 U/ml penicillin (Gibco, Australia), 100 μg/ml streptomycin (Gibco, Australia) and 2 mM L-glutamine (Gibco, Australia), and preincubated with the test compounds for 2 h at 37° C., in an atmosphere of 5% CO2, and 90% humidity. Then, stimuli (Sigma, USA) were added to a final concentration of 2 μg/mL lipopolysaccharide (LPS), 1 μg/mL phorbol 12-myristate 13-acetate (PMA) or 120 μg/mL zymosan. Samples were incubated overnight under conditions described above. At the end of incubation, the supernatants were transferred to eppendorf tubes and centrifuged for 10 min at 1500×g. Concentrations of human TNF-α, IL-1β, IL-6 and IL-8 were determined in cell supernatants by sandwich ELISA, using capture and detection antibodies (R&D Systems, Minneapolis, Minn.) according to the manufacturer's recommendations.
(§4) Inhibition (as percentage) was calculated using the following formula: % inhibition=(1−concentration of cytokines in sample/concentration of cytokines in positive control)×100. The positive control refers to stimulated samples, not treated with substances.

[1] = tested on: human peripheral blood mononuclear cells (PBMC); assay: Human T-cell proliferation in vitro (3H-thymidine incorporation); settings: Homo sapiens, PBMC, read-out: Percentage of inhibition of proliferation of stimulated PBMC; for inhibition at 10 µM: compound 10 μM; for inhibition at 50 µM: compound 50 μM
Experimental: Influence of substances at two different concentrations (50 μM and 10 μM) on cell proliferation of human peripheral blood mononuclear cells (PBMC) was assessed.
Heparinized peripheral blood was obtained from healthy donors, and PBMC were isolated by Histopaque 1077 (Sigma, USA) density centrifugation at 400×g for 30 minutes. 5×10^4 cells/well were cultured for 3 days in the RPMI medium as described above, in the presence (positive control) or absence (negative control) of stimulators [PHA (2.5 μg/mL) (Sigma, USA), or both PMA (10 ng/mL) (Sigma, USA) and ionomycin (500 ng/mL) (Calbiochem, USA)], and in the presence of the test compounds, at 37° C. in an atmosphere of 5% CO2 and 90% humidity. The cells were pulsed with 1 μCi of ^3H-thymidine (Amersham, USA) per well during the last 18 h of the culture, and were harvested on the 96-well filter (Packard Bioscience, USA) using a multiple cell harvester (Packard, USA). The incorporation of ^3H-thymidine in activated cells were measured using TopCount NXT (Packard, USA).
Inhibition (as percentage) was calculated using the following formula: % inhibition=(1−(^3H)thymidine incorporation expressed in counts per minute (cpm) in sample/(^3H)thymidine incorporation expressed in cpm in positive control)×100
where positive control refers to stimulated samples, not treated with substances.

IL-6 = assay: Inhibition of IL-6 production by stimulated human peripheral blood leukocytes in vitro; settings: Homo sapiens, Leukocyte, PBL, read-out: Percentage of inhibition of IL-6 production; for inhibition at 10 µM: compound 10 μM; for inhibition at 50 µM: compound 50 μM
Experimental: as §1, §2, §3, §4

TNF-α = assay: Inhibition of TNF-α production by stimulated human peripheral blood leukocytes in vitro; settings: Homo sapiens, Leukocyte, PBL, read-out: Percentage of inhibition of TNF-α production; for inhibition at 10 µM: compound 10 μM; for inhibition at 50 µM: compound 50 μM
Experimental: as §1, §2, §3, §4

IL-1α = assay: Inhibition of IL-1 production by stimulated human peripheral blood leukocytes in vitro; settings: Homo sapiens, Leukocyte, PBL, read-out: Percentage of inhibition of IL-1α production; for inhibition at 10 µM: compound 10 μM; for inhibition at 50 µM: compound 50 μM

| SMILES | inhibition at 10 µM (IL-8; LPS stimulated) [%] | inhibition at 50 µM (IL-8; LPS stimulated) [%] | inhibition at 10 µM (IL-8; PMA stimulated) [%] | inhibition at 50 µM (IL-8; PMA stimulated) [%] | inhibition at 10 µM (IL-8; zymosan stimulated) [%] | inhibition at 50 µM (IL-8; zymosan stimulated) [%] | inhibition at 10 µM ([1]; PHA stimulated) [%] | inhibition at 50 µM ([1]; PHA stimulated) [%] | inhibition at 10 µM ([1]; PMA + ionomycin stimulated) [%] | inhibition at 50 µM ([1]; PMA + ionomycin stimulated) [%] | inhibition at 10 µM (IL-6; LPS stimulated) [%] | inhibition at 50 µM (IL-6; LPS stimulated) [%] | inhibition at 10 µM (IL-6; zymosan stimulated) [%] | inhibition at 50 µM (IL-6; zymosan stimulated) [%] | inhibition at 10 µM (TNF-α; LPS stimulated) [%] | inhibition at 50 µM (TNF-α; LPS stimulated) [%] | inhibition at 10 µM (TNF-α; PMA stimulated) [%] | inhibition at 50 µM (TNF-α; PMA stimulated) [%] | inhibition at 10 µM (TNF-α; zymosan stimulated) [%] | inhibition at 50 µM (TNF-α; zymosan stimulated) [%] | further results |
| --- | --- | --- | --- | --- | --- | --- | --- | --- | --- | --- | --- | --- | --- | --- | --- | --- | --- | --- | --- | --- | --- |
| CC[C@H]1OC(=O)[C@H](C)[C@@H](O[C@H]2C[C@@](C)(OC)[C@@H](O)[C@H](C)O2)[C@H](C)[C@@H](O[C@@H]2O[C@H](C)C[C@H](N(C)C)[C@H]2O)[C@](C)(O)C[C@@H](C)CN(C(=S)Nc2cccc(Br)c2)[C@H](C)[C@@H](O)[C@]1(C)O [Compound 6] | 43 | 100 | 23 | 100 | 41 | 71 | 0 | 100 | 0 | 100 | 59 | 100 | 6 | 100 | 74 | 100 | 73 | 100 | 36 | 98 | inhibition at 10 µM (IL-1α; LPS stimulated): 64%; inhibition at 50 µM (IL-1α; LPS stimulated): 98%; inhibition at 10 µM (IL-1α; PMA stimulated): 79%; inhibition at 50 µM (IL-1α; PMA stimulated): 100%; inhibition at 10 µM (IL-1α; zymosan stimulated): 67%; inhibition at 50 µM (IL-1α; zymosan stimulated): 89% |
| CC[C@H]1OC(=O)[C@H](C)[C@@H](O)[C@H](C)[C@@H](O[C@@H]2O[C@H](C)C[C@H](N(C)C)[C@H]2O)[C@](C)(O)C[C@@H](C)CN(C(=O)Nc2cccc(C(F)(F)F)c2)[C@H](C)[C@@H](O)[C@]1(C)O [Compound 13] | 0 | 0 | 0 | 25 | 62 | 0 | 11 | 42 | 21 | 43 | 0 | 0 | 52 | 94 | 0 | 0 | 0 | 0 | 0 | 52 | inhibition at 10 µM (IL-6; PMA stimulated): 84%; inhibition at 50 µM (IL-6; PMA stimulated): 100%; inhibition at 10 µM (IL-1α; LPS stimulated): 0%; inhibition at 50 µM (IL-1α; LPS stimulated): 52%; inhibition at 10 µM (IL-1α; PMA stimulated): 0%; inhibition at 50 µM (IL-1α; PMA stimulated): 32%; inhibition at 10 µM (IL-1α; zymosan stimulated): 34%; inhibition at 50 µM (IL-1α; zymosan stimulated): 89% |

Source: patent publication US20080200403A1, “9A-Carbamoyl and Thiocarbamoyl Azalides with Anti-Inflammatory Activity” (GLAXOSMITHKLINE, priority 2005, published 2008)
